Converted amounts (≈) assume the structure as drawn. “Also recorded” adds a separate entry of the source. Where two headings read alike, the source gives them in different places.
Key:
Pseudomonas aeruginosa = test: MIC against Pseudomonas aeruginosa; assay type: cell-based; conditions: for MIC: read-out: MIC, PA
MRSA USA400 = test: MIC against MRSA USA400; assay type: cell-based, Staphylococcus aureus; conditions: TSB, 37 °C, 18–20 hours; for MIC: Staphylococcus aureus, read-out: MIC, Staphylococcus aureus isolate USA400
Description: (§1) 96-well plates were seeded with 5 × 10^5 CFU/mL in a volume of 100 μL of tryptic soy broth (TSB) per well for Staphylococcus aureus assays. Compounds were dissolved in DMSO and serially diluted as 1:2 dilutions to give the final concentration ranging from 0.25 to 128 μg/mL per well. […] Plates were incubated at 37 °C for 18–20 hours and MIC was determined by reading OD625. For M.avium and M.abscessus, 7H9 broth media was used for determination of MICs. The final concentration was 5 × 10^5 CFU/mL in each well. The plate was incubated at 37 °C for 7–8 days and MICs were determined using a Tecan microplate reader (OD625) and resazurin reduction assay.

Enterococcus faecalis = test: MIC against Enterococcus faecalis; assay type: cell-based; conditions: for MIC: read-out: MIC, EF
MRSA USA300 = test: MIC against MRSA USA300; assay type: cell-based, Staphylococcus aureus; conditions: TSB, 37 °C, 18–20 hours; for MIC: Staphylococcus aureus, read-out: MIC, Staphylococcus aureus isolate USA300
Description: as §1

MRSA USA700 = test: MIC against MRSA USA700; assay type: cell-based, Staphylococcus aureus; conditions: TSB, 37 °C, 18–20 hours; for MIC: Staphylococcus aureus, read-out: MIC, Staphylococcus aureus isolate USA700
Description: as §1

MenA = conditions: previously reported; cited from earlier work
[1] = system: Methicillin susceptible Staphylococcus aureus; test: MIC against MSSA; assay type: cell-based; conditions: for MIC: MSSA
Description: as §1

MRSA USA200 = test: MIC against MRSA USA200; assay type: cell-based, Staphylococcus aureus; conditions: TSB, 37 °C, 18–20 hours; for MIC: Staphylococcus aureus, read-out: MIC, Staphylococcus aureus isolate USA200
Description: as §1

IL-1β = IL-1β release from THP-1 macrophages; assay type: cell-based, human; conditions: concentration equal to MIC, 24 h, 37 °C
Description: (§2) THP-1 cells were differentiated into macrophages by treatment with PMA (7.5 ng/mL). Levels of the human cytokines (GM-CSF, IFN-γ, IL-1β, IL-2, IL-4, IL-5, IL-6, IL-8, IL-10, TNF-α) released from THP-1 macrophages were determined using a multiplex kit from Life Technologies according to the manufacturer’s instructions. In brief, the 96 well filter plate was pre-wetted, and then 25 μL of the diluted bead suspension was added to each well and washed twice. 100 μL of samples and standards were added to each well. The plate was incubated at room temperature for 2 h on a shaker. Following washing, biotinylated detection antibody was added and incubated for 1 h. After washing, streptavidin-RPE was added to each well and incubated for 0.5 h. The plate was again washed, resuspended in 100 μL of the washing buffer, and read on the Luminex xMAP™ system (Bio-Rad, AtheNA multi-Lyte™, USA). All samples were run in triplicate and standards were run in duplicate.

MRSA USA500 = test: MIC against MRSA USA500; assay type: cell-based, Staphylococcus aureus; conditions: TSB, 37 °C, 18–20 hours; for MIC: Staphylococcus aureus, read-out: MIC, Staphylococcus aureus isolate USA500
Description: as §1

MRSA USA 700 = test: Menaquinone (MK-4) rescue, resazurin reduction assay, USA 700; assay type: cell-based; conditions: Staphylococcus aureus, read-out: MIC in the presence of MK-4
Description: (§3) Resazurin reduction assay was performed in 96-well plate. MRSA was cultured in TSB until OD625 reached 0.4~0.5 and diluted and plated in 96-well plate. […] The plate was incubated overnight at 37 °C followed by 20 μL of resazurin (0.15 mg/mL) was added to each well. The plate was incubated for 2–4 h and fluorescence was measured at 560 nm excitation/590 nm emission.

Mycobacterium avium = test: MIC against Mycobacterium avium; assay type: cell-based; conditions: 7H9 broth, 7–8 days
Description: as §1

TNF-α = TNF-α release from THP-1 macrophages; assay type: cell-based, human; conditions: concentration equal to MIC, 24 h, 37 °C
Description: as §2

MRSA (USA700) biofilms = test: S. aureus biofilm assay; assay type: cell-based, Staphylococcus aureus; conditions: USA700 biofilm, 24 h
Description: Biofilm assays were performed using a method previously described with modification. A 96 well plate was precoated with 20% human plasma (Sigma) in 0.05 M carbonate buffer, pH 9.6 at 4 °C for 24 h. MRSA was cultured overnight in TSB containing 3% NaCl and 0.5% glucose. The overnight culture was diluted with TSB/NaCl/Glucose media until OD600 reached 0.05. After carefully removing the liquid from the 96 well plate, 200 μL of MRSA dilution was added to each well in triplicate. The plate was incubated at 37 °C for 24 h and carefully washed with PBS twice. MH broth (200 μL) containing a compound was added to each well in triplicate and incubated at 37 °C for 24 h. After washing with PBS twice, the biofilm was scraped in 100 μL of PBS and serially diluted and plated on TSA to determine CFU.

Mycobacterium abscessus = test: MIC against Mycobacterium abscessus; assay type: cell-based; conditions: Mycobacteroides abscessus, 7H9 broth, 7–8 days
Description: as §1

Gram-positive bacteria = test: MIC against Gram-positive bacteria (summary); assay type: cell-based; conditions: range over all tested Gram-positive bacteria
Description: as §1

IL-6 = IL-6 release from THP-1 macrophages; assay type: cell-based, human; conditions: concentration equal to MIC, 24 h, 37 °C
Description: as §2

MRSA (USA 700) = test: Activity against extracellular MRSA in the presence of human MDMs; assay type: cell-based, Staphylococcus aureus; conditions: extracellular MRSA USA700, MIC and MIC/4, 24 h
Description: Human monocyte-derived macrophages (MDM) were cultured at a concentration of 1 × 10^6 cells/mL/well in a 24 well plate. MRSA (USA 700) was cultured in TSB (10 mL) until OD625 reached 0.4~0.5 and then centrifuged at 14,000 rpm for 10 min. The pellets were resuspended in 10 mL of DMEM supplemented with 10% human serum (no antibiotics). The bacteria medium was diluted with DMEM containing an inhibitor to obtain 1 × 10^6 CFU/mL and added to human MDMs (MOI = 1) in a 24-well plate. After 24 hour infection at 37 °C, the supernatants were serially diluted for CFU determination (TSA plates).

MRSA USA800 = test: MIC against MRSA USA800; assay type: cell-based, Staphylococcus aureus; conditions: TSB, 37 °C, 18–20 hours; for MIC: Staphylococcus aureus, read-out: MIC, Staphylococcus aureus isolate USA800
Description: as §1

MRSA (USA200) = test: Colony morphology / small colony variant formation on TSA; assay type: cell-based, Staphylococcus aureus; conditions: for induction of small colony variants (SCV): USA200 on TSA, 37 °C, up to 96 h (3a 4–16 μg/mL), 72 h (7c, rifampin)
Description: MRSA was streaked and then incubated on tryptic soy agar (TSA) containing 0, 2, 4, 8 or 16 μg/mL of inhibitor 3a or 4 μg/mL of 7C or 0.025 μg/mL of rifampin at 37 °C for 96 h. MK-4 (100 μg/mL) was supplemented in TSA containing 8 μg/mL of 3a for the rescue experiment.

MRSA USA100 = test: MIC against MRSA USA100; assay type: cell-based, Staphylococcus aureus; conditions: TSB, 37 °C, 18–20 hours; for MIC: Staphylococcus aureus, read-out: MIC, Staphylococcus aureus isolate USA100
Description: as §1

MRSA strains = test: MIC against MRSA strains (summary); assay type: cell-based, Staphylococcus aureus; conditions: range over MRSA strains
Description: as §1

MRSA USA 200 = test: Menaquinone (MK-4) rescue, resazurin reduction assay, USA 200; assay type: cell-based; conditions: Staphylococcus aureus, read-out: MIC in the presence of MK-4
Description: as §3

SMILES | MIC (Pseudomonas aeruginosa) [µg/mL] | MIC (MRSA USA400) [µg/mL] | MIC (Enterococcus faecalis) [µg/mL] | MIC (MRSA USA300) [µg/mL] | MIC (MRSA USA700) [µg/mL] | M.tb IC50 (inhibition of both M.tb and MenA enzyme activity) (MenA) [µg/mL] | MIC [1] [µg/mL] | MIC (MRSA USA200) [µg/mL] | IL-1β released from THP-1 macrophages (IL-1β) | MIC, Staphylococcus aureus isolate USA700 (MRSA USA700) [µg/mL] | MIC (MRSA USA500) [µg/mL] | MIC (Mycobacterium avium) [µg/mL] | TNF-α released from THP-1 macrophages (TNF-α) | MIC (Mycobacterium abscessus) [µg/mL] | MIC values against all Gram-positive bacteria (range) (Gram-positive bacteria) [µg/mL] | IL-6 released from THP-1 macrophages (IL-6) | increase of antibacterial activity compared to activities with MDMs (MRSA (USA 700)) | increase of antibacterial activity compared to activities without MDMs (MRSA (USA 700)) | MIC (MRSA USA800) [µg/mL] | MIC (MRSA USA100) [µg/mL] | other results
COc1ccc2ccc(OCCCCCCCCN3CCCCC3)cc2c1 [compound 2] | > 64 | 16 (≈ 43.3 µM) | 16 (≈ 43.3 µM) | 16 (≈ 43.3 µM) | 16 (≈ 43.3 µM) | 5 | 16 (≈ 43.3 µM) | – | – | – | – | – | – | – | – | – | – | – | – | – | –
COc1ccc2ccc(OCCCCCCCCNCCc3ccc(F)cc3)cc2c1 [3a] | > 64 | 4 (≈ 9.44 µM) | 1 (≈ 2.36 µM) | 4 (≈ 9.44 µM) | 4 (≈ 9.44 µM) | – | 4 (≈ 9.44 µM) | 2 (≈ 4.72 µM) | stimulated the release | 4 (≈ 9.44 µM) | 4 (≈ 9.44 µM) | 2 (≈ 4.72 µM) | decreased | 6 (≈ 14.2 µM) | 0.5 to 16 | decreased; also recorded: significantly reduced | 1.5 – 3 fold | 6–12 fold | 6 (≈ 14.2 µM) | 4 (≈ 9.44 µM) | MIC (MRSA USA 700; USA 700, 0.05 mg/mL MK-4): 16 µg/mL; MIC (MRSA USA 700; USA 700, 0.5 mg/mL MK-4): 64 µg/mL; fold decrease in MRSA growth from the treated biofilm (MRSA (USA700) biofilms; 0.03 mg/mL): 10^4 fold; fold decrease in MRSA growth from the treated biofilm (MRSA (USA700) biofilms; 0.5 mg/mL): 10^6 fold; fold decrease in MRSA growth from the treated biofilm (MRSA (USA700) biofilms; 1 mg/mL): 10^7 fold; colonies on MK-4 supplemented agar plate (MRSA (USA200); USA200, 8 μg/mL inhibitor + MK-4 100 μg/mL): showed wild-type colonies; colonies on agar plates (MRSA (USA200); USA200, more than 2× MIC, after 24 h): No colonies were observed; induction of small colony variants (SCV) (MRSA (USA200)): did not induce SCV; MICs against MRSA strains (range) (MRSA strains): 1 to 8 µg/mL
C=CCN(C)CCCCCCCCOc1ccc2ccc(OC)cc2c1 [compound 1] | 128 (≈ 360 µM) | 16 (≈ 45 µM) | 8 (≈ 22.5 µM) | 16 (≈ 45 µM) | 16 (≈ 45 µM) | 6 | 32 (≈ 90 µM) | – | – | – | – | – | – | – | – | – | – | – | – | – | –
Brc1cc2ccc(OCCCCCCCCN3CCCCC3)cc2cc1OCc1ccccc1 [6b] | – | – | – | – | – | – | – | – | stimulated the release | 16 (≈ 30.5 µM) | – | – | decreased | – | – | decreased; also recorded: significantly reduced | 1.5 – 3 fold | 6–12 fold | – | – | MIC, Staphylococcus aureus isolate USA200 (MRSA USA200): 4 µg/mL (≈ 7.63 µM); MIC, PA (Pseudomonas aeruginosa): >128 µg/mL; MIC, Staphylococcus aureus isolate USA400 (MRSA USA400): 6 µg/mL (≈ 11.4 µM); MIC, EF (Enterococcus faecalis): 2 µg/mL (≈ 3.81 µM); MIC, Staphylococcus aureus isolate USA300 (MRSA USA300): 6 µg/mL (≈ 11.4 µM); MIC, Staphylococcus aureus isolate USA500 (MRSA USA500): 12 µg/mL (≈ 22.9 µM); MIC, MA (Mycobacterium avium): 2 µg/mL (≈ 3.81 µM); MIC, MSSA [1]: 4 µg/mL (≈ 7.63 µM); MIC, Staphylococcus aureus isolate USA800 (MRSA USA800): 12 µg/mL (≈ 22.9 µM); MIC, Staphylococcus aureus isolate USA100 (MRSA USA100): 6 µg/mL (≈ 11.4 µM)
Fc1ccc(CCNCCCOc2ccc3ccc(OCCCNCCc4ccc(F)cc4)cc3c2)cc1 [7c] | > 128 | 1 (≈ 1.93 µM) | 1 (≈ 1.93 µM) | 3 (≈ 5.78 µM) | 2 (≈ 3.86 µM) | – | 2 (≈ 3.86 µM) | 2 (≈ 3.86 µM) | stimulated the release | – | 8 (≈ 15.4 µM) | 3 (≈ 5.78 µM) | decreased | 6 (≈ 11.6 µM) | 0.5 to 16 | decreased; also recorded: significantly reduced | 1.5 – 3 fold | 6–12 fold | 4 (≈ 7.71 µM) | 3 (≈ 5.78 µM) | induction of small colony variants (SCV) (MRSA (USA200)): did not induce SCV; MICs against MRSA strains (range) (MRSA strains): 1 to 8 µg/mL
COc1ccc2ccc(OCCCCCCCCNCCc3ccc(Br)cc3)cc2c1 [3c] | > 64 | 4 (≈ 8.26 µM) | 1 (≈ 2.06 µM) | 4 (≈ 8.26 µM) | 4 (≈ 8.26 µM) | – | 4 (≈ 8.26 µM) | 2 (≈ 4.13 µM) | – | – | 6 (≈ 12.4 µM) | 4 (≈ 8.26 µM) | – | 12 (≈ 24.8 µM) | 0.5 to 16 | – | – | – | 6 (≈ 12.4 µM) | 6 (≈ 12.4 µM) | MIC, Staphylococcus aureus isolate USA200 (MRSA USA200): 2 µg/mL (≈ 4.13 µM); MIC (MRSA USA 200; USA 200, 0.05 mg/mL MK-4): 16 µg/mL; MIC (MRSA USA 200; USA 200, 0.5 mg/mL MK-4): 64 µg/mL

— PMC5223195, “Novel long-chain compounds with both immunomodulatory and MenA inhibitory activities against Staphylococcus aureus and its biofilm” (Scientific Reports, 2017)
